From patent US6399782B1, “Benzimidazole inhibitors of fructose 1,6-bisphosphatase” (Metabasis Therapeutics, Inc., priority 1997, dated 2002)

Tests used:
[1] = target: T1, human liver FBPase (Homo sapiens, UniProt P09467); assay: Inhibition of human liver FBPase; assay type: biochemical; conditions: for IC50: values in text, read-out: hlFBPase IC50
T1 construct: made in house; host or cells: E. coli BL21
T1 sequence (P09467 2-338 limits assumed): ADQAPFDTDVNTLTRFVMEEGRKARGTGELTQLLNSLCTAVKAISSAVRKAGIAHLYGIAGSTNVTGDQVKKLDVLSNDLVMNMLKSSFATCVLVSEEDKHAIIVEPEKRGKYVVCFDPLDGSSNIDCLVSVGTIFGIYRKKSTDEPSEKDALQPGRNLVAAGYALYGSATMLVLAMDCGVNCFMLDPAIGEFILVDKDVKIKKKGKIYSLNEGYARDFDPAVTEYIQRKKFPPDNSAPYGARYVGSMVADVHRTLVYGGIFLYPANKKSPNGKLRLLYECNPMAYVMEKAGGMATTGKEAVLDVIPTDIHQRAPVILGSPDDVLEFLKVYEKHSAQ

[2] = target: T2, Human adenosine kinase (Homo sapiens, UniProt P55263); assay: Adenosine kinase selectivity assay; assay type: biochemical; conditions: for IC50: Table 3 Selectivity, read-out: Adenosine Kinase (inh.); for effect on adenosine kinase: result in words
T2 construct: made in house; host or cells: E. coli
T2 sequence (P55263 1-345 isoform P55263-2): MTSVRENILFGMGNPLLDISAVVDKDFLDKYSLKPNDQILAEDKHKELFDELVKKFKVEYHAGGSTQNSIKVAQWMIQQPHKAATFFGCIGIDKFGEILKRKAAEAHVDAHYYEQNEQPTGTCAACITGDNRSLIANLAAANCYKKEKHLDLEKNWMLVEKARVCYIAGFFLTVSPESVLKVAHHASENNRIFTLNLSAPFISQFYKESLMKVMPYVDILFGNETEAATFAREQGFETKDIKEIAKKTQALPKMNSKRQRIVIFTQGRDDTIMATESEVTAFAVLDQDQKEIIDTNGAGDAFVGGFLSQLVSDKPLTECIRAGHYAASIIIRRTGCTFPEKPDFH
Method: (§1) To determine the selectivity of compounds towards FBPase, effects of FBPase inhibitors on 5 key AMP binding enzymes were measured using the assays described below:
Adenosine Kinase: Human adenosine kinase was purified from an E. coli expression system as described by Spychala et al (Spychala, J., Datta, N. S., Takabayashi, K., Datta, M., Fox, I. H., Gribbin, T., and Mitchell, B. S. (1996) Proc. Natl. Acad. Sci. USA 93, 1232-1237). Activity was measured essentially as described by Yamada et at (Yamada, Y., Goto, H., Ogasawara, N. (1988) Biochim. Biophys. Acta 660, 36-43.) with a few minor modifications. Assay mixtures contained 50 mM TRIS-maleate buffer, pH 7.0, 0.1% BSA, 1 mM ATP 1 mM MgCl2, 1.0 μM [U-^14C] adenosine (400-600 mCi/mmol) and varying duplicate concentrations of inhibitor. ^14C-AMP was separated from unreacted ^14C-adenosine by absorption to anion exchange paper (Whatman) and quantified by scintillation counting.

[3] = target: T3, Phosphofructokinase (rabbit liver) (Oryctolagus cuniculus, UniProt Z9KA34MY27); assay: Phosphofructokinase selectivity assay; assay type: biochemical; conditions: result in words
T3 construct: Phosphofructokinase: Enzyme (rabbit liver) was purchased from Sigma
T3 sequence (Z9KA34MY27 1-780): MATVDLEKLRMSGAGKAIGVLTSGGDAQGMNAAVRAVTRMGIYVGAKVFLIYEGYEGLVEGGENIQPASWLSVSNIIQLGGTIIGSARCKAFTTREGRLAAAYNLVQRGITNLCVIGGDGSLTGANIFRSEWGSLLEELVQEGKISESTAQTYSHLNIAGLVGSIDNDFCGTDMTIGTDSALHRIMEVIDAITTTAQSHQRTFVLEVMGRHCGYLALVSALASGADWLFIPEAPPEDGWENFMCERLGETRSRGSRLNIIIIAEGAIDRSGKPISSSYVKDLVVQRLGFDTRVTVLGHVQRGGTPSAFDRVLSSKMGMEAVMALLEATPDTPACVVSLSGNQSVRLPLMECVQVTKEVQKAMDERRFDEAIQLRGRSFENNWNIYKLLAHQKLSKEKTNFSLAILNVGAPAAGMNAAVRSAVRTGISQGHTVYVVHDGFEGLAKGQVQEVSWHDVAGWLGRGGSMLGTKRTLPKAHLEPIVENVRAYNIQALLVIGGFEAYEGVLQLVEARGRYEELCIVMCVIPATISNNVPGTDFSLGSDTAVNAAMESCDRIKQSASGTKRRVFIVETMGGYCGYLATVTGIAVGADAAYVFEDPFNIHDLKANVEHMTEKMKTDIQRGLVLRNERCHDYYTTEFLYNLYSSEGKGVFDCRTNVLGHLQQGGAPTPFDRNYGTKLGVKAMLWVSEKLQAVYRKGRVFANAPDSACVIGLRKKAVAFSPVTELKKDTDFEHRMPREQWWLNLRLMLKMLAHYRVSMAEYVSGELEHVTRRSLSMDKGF
Method: as §1
Phosphofructokinase: Enzyme (rabbit liver) was purchased from Sigma. Activity was measured at 30° C. in reactions in which the formation of fructose 1,6-bisphosphate was coupled to the oxidation of NADH via the action of aldolase, triosephosphate isomerase, and α-glycerophosphate dehydrogenase. Reaction mixtures (200 μL) were made up in 96-well microtitre plates and were read at 340 nm in a Molecular Devices Microplate Reader. The mixtures consisted of 200 mM Tris-HCl pH 7.0, 2 mM DTT, 2 mM MgCl2, 0.2 mM NADH, 0.2 mM ATP, 0.5 mM Fructose 6-phosphate, 1 unit aldolase/ml, 3 units/ml triosephosphate isomerase, and 4 units/mL α-glycerophosphate dehydrogenase. Test compound concentrations ranged from 1 to 500 μM. Reactions were started by the addition of 0.0025 units of phosphofructokinase and were monitored for 15 minutes.

[4] = test system: fasted Sprague Dawley rats; assay: Blood glucose lowering in fasted rats; assay type: in vivo, rat; conditions: 20 mg/kg intraperitoneally, 18 hours fasted Sprague Dawley rats, one hour post injection
Method: Sprague Dawley rats (250-300 g) were fasted for 18 hours and then dosed intraperitoneally with 20 mg/kg of compounds 12.53, 12.61, or 12.64. The vehicle used for drug administration was 50 mM sodium bicarbonate. Blood samples were obtained from the tail vein of conscious animals just prior to injection and one hour post injection. Blood glucose was measured using a HemoCue Inc. glucose analyzer according to the instructions of the manufacturer.

[5] = test system: rat hepatocytes; assay: Glucose production inhibition and fructose 1,6-bisphosphate accumulation in rat hepatocytes; assay type: cell-based
Method: Hepatocytes were prepared from overnight fasted Sprague-Dawley rats (250-300 g) according to the procedure of Berry and Friend (Berry, M. N., Friend, D. S., 1969, J. Cell. Biol. 43, 506-520) as modified by Groen (Groen, A. K., Sips, H. J., Vervoorn, R. C., Tager, J. M., 1982, Eur. J. Biochem. 122, 87-93). Hepatocytes (75 mg wet weight/mL) were incubated in 1 ml Krebs-bicarbonate buffer containing 10 mM Lactate, 1 mM pyruvate, 1 mg/mL BSA, and test compound concentrations from 1 to 500 μM. Incubations were carried out in a 95% oxygen, 5% carbon dioxide atmosphere in closed, 50-mL Falcon tubes submerged in a rapidly shaking water bath (37° C.). After 1 hour, an aliquot (0.25 mL) was removed, transferred to an Eppendorf tube and centrifuged. 50 μL of supernatant was then assayed for glucose content using a Sigma Glucose Oxidase kit as per the manufacturer's instructions.
Isolated rat hepatocytes were prepared as described in Example D and incubated under the identical conditions described. […] After thorough mixing and centrifugation, the supernatant was analyzed for glucose content as described in Example D, and also for fructose 1,6-bisphosphate. Fructose 1,6-bisphosphate was assayed spectrophotometrically by coupling its enzymatic conversion to glycerol 3-phosphate to the oxidation of NADH, which was monitored at 340 nm. […]

[6] = test system: streptozotocin-treated Sprague-Dawley rats; assay: Blood glucose lowering in the streptozotocin-treated rat; assay type: in vivo
Method: Diabetes was induced in male Sprague-Dawley rats (250-300 g) by intraperitoneal injection of 55 mg/kg streptozotocin (Sigma Chemical Co.). Six days later, 24 animals were selected with fed blood glucose values (8 am) between 350 and 600 mg/dL and divided into two statistically equivalent groups. Blood glucose was measured in blood obtained from a tall vein nick by means of a HemoCue Inc. (Mission Viejo, Calif.) glucose analyzer. […] Food was removed from the animals. Blood glucose was measured in each animal four hours after dosing, and a second dose of drug or saline was then administered. Four hours later, a final blood glucose measurement was made.

Row | IC50 [1] [µM] | IC50 [2] [µM] | effect on adenosine kinase [2] | effect on phosphofructokinase [3] | melting point [°C] | Structure (SMILES) | inhibition of human liver FBPase activity (FIG. 2) ([1]; result in words) | blood glucose lowering [4] [%] | IC50 ([5]; Hepatocyte, Example F, FIG. 5, read-out: IC50 glucose production from lactate/pyruvate) [µM] | accumulation of fructose 1,6-bisphosphate ([5]; result in words) | Blood glucose, mg/dl T = 8h ([6]; 100 mg/kg intraperitoneally at 0 and 4 h, food removed, 8 hours after the initial dose) [mg/dL] | Blood glucose, mg/dl T = 0h ([6]; before dosing, streptozotocin-treated rats) [mg/dL]
1 | 0.055 | > 100 | essentially without effect | essentially without effect | 258 to 260 | Nc1c(F)ccc2c1nc(-c1ccc(P(=O)(O)O)o1)n2CC1CC1 [Compound 12.61, 4-Amino-5-fluoro-1-cyclopropylmethyl-2-(2-phosphono-5-furanyl)benzimidazole] | inhibit human liver FBPase activity in vitro in a dose dependent manner | 48±15 |  |  |  | 
2 |  |  |  |  |  | CCc1cc(F)c(N)c2nc(-c3ccc(P(=O)(O)O)o3)n(CC(C)C)c12 [Compound 12.64] |  | 64.6±24 | ~3 | dose-dependent accumulation of fructose 1,6 bisphosphate | 271 ± 29 | 488 ± 16
3 | 2 | > 10 | essentially inactive | essentially inactive | > 250 | CCn1c(-c2ccc(P(=O)(O)O)o2)nc2c(N)cccc21 [Compound 12.1, 4-Amino-1-ethyl-2-[2-(5-phosphono)furanyl]benzimidazole] |  |  |  |  |  | 
